# Measured values: patent publication US20060069132A1, “Azolecarboxamide herbicides” (priority 2004, published 2006)
# Tests used:
# [1] = test system: barnyardgrass; test: Test A pre-/postemergence herbicide test; format: in vivo, Echinochloa crus-galli
# Outline: (§1)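 Sandy loam soil given preemergence directed spray; plants at 2 to 10 cm, one- to two-leaf stage, sprayed to runoff postemergence, compounds in non-phytotoxic solvent with surfactant. Injury rated visually versus untreated controls after about ten greenhouse days, 0 (no effect) to 100 (complete control); dash means not tested.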
# [2] = test system: large crabgrass; test: Test A pre-/postemergence herbicide test; format: in vivo, Digitaria sanguinalis
# Outline: as §1
# [3] = test system: giant foxtail; test: Test A pre-/postemergence herbicide test; format: in vivo, Setaria faberi
# Outline: as §1
# [4] = test system: morningglory; test: Test A pre-/postemergence herbicide test; format: in vivo, Ipomoea spp.
# Outline: as §1
# [5] = test system: redroot pigweed; test: Test A pre-/postemergence herbicide test; format: in vivo, Amaranthus retroflexus
# Outline: as §1
# [6] = test system: velvetleaf; test: Test A pre-/postemergence herbicide test; format: in vivo, Abutilon theophrasti
# Outline: as §1
# [7] = test system: barnyardgrass; test: Test B pre-/postemergence herbicide test; format: in vivo, Echinochloa crus-galli; conditions: for Barnyardgrass plant response rating: postemergence
# Outline: (§2)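 Test chemicals in a non-phytotoxic solvent mixture with surfactant were applied preemergence to seeded species and postemergence to plants 2-18 cm tall (1- to 4-leaf stage); rice and barnyardgrass were also tested in a flooded paddy at the 2-leaf stage. Visual rating versus controls after 13-15 days in greenhouse, scale 0 (no effect) to 100 (complete control).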
# [8] = test system: Surinam grass; test: Test B pre-/postemergence herbicide test; format: in vivo, Urochloa decumbens; conditions: for Surinam Grass plant response rating: postemergence
# Outline: (§3)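 Greenhouse pot assay with simultaneous preemergence (treated seed) and postemergence (2–18 cm seedlings) applications of surfactant-containing, non-phytotoxic solvent formulations. Response scored visually 13–15 days later on a 0–100 scale, 100 meaning complete control.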
# [9] = test system: cocklebur; test: Test B pre-/postemergence herbicide test; format: in vivo, Xanthium strumarium; conditions: for Cocklebur plant response rating: postemergence
# Outline: as §2
# [10] = test system: corn; test: Test B pre-/postemergence herbicide test; format: in vivo, Zea mays; conditions: for Corn plant response rating: postemergence
# Outline: as §3
# [11] = test system: large crabgrass; test: Test B pre-/postemergence herbicide test; format: in vivo, Digitaria sanguinalis; conditions: for Crabgrass, Large plant response rating: postemergence
# Outline: as §3
# [12] = test system: giant foxtail; test: Test B pre-/postemergence herbicide test; format: in vivo, Setaria faberi; conditions: for Foxtail, Giant plant response rating: postemergence
# Outline: as §3
# [13] = test system: lambsquarters; test: Test B pre-/postemergence herbicide test; format: in vivo, Chenopodium album; conditions: for Lambsquarters plant response rating: postemergence
# Outline: as §3
# [14] = test system: morningglory; test: Test B pre-/postemergence herbicide test; format: in vivo, Ipomoea coccinea; conditions: for Morningglory plant response rating: postemergence
# Outline: as §2
# [15] = test system: pigweed; test: Test B pre-/postemergence herbicide test; format: in vivo, Amaranthus retroflexus; conditions: for Pigweed plant response rating: postemergence
# Outline: as §3
# [16] = test system: rice; test: Test B pre-/postemergence herbicide test; format: in vivo, Oryza sativa; conditions: 0 = no effect, 100 = complete control, preemergence
# Outline: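 Species tested were Echinochloa crus-galli, Ipomoea coccinea, Xanthium strumarium and Oryza sativa, treated both before emergence and at the 1- to 4-leaf stage; rice and barnyardgrass were also tested under flooding at 2 leaves. Greenhouse incubation lasted 13–15 days before visual 0–100 scoring.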
# [17] = test system: velvetleaf; test: Test B pre-/postemergence herbicide test; format: in vivo, Abutilon theophrasti; conditions: for Velvetleaf plant response rating: postemergence
# Outline: as §3
# [18] = test system: blackgrass; test: Test B postemergence herbicide test; format: in vivo, Alopecurus myosuroides; conditions: postemergence
# Outline: (§4)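 Paddy species grown to the 2-leaf stage under flooding; blackgrass sprayed postemergence at 2–18 cm (1- to 4-leaf stage). Plants kept in a greenhouse for 13 to 15 days, then visually rated against controls on 0 (no effect) to 100 (complete control).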
# [19] = test system: wheat; test: Test B postemergence herbicide test; format: in vivo, Triticum aestivum; parameters: key to Wheat plant response rating: 0 = no effect, 100 = complete control; conditions: postemergence
# Outline: (§5)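 Each value is a visual 0–100 response rating taken against controls 13 to 15 days after treatment in the greenhouse. Plants received formulated chemical postemergence at the 1- to 4-leaf stage or, in flooded paddy, at the 2-leaf stage.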
# [20] = test system: wild oat; test: Test B postemergence herbicide test; format: in vivo, Avena fatua; conditions: postemergence
# Outline: as §5
# [21] = test system: rice; test: Test B flooded paddy test; format: in vivo, Oryza sativa; conditions: 1000 g ai/ha, scale 0 to 100 (0 no effect, 100 complete control)
# Outline: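 Greenhouse test; postemergence application to plants at 1–4 leaves (2–18 cm); paddy species at 2 leaves; evaluated visually vs controls at 13–15 days; scale 0–100 (100 = complete control).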
# [22] = test system: small flower umbrella sedge; test: Test B flooded paddy test; format: in vivo, Cyperus difformis; conditions: 1000 g ai/ha, scale 0 to 100 (0 no effect, 100 complete control)
# Outline: as §4
# [23] = test system: ducksalad; test: Test B flooded paddy test; format: in vivo, Heteranthera limosa; conditions: 1000 g ai/ha, scale 0 to 100 (0 no effect, 100 complete control)
# Outline: as §4
# [24] = test system: barnyardgrass; test: Test B flooded paddy test; format: in vivo, Echinochloa crus-galli; conditions: 1000 g ai/ha, scale 0 to 100 (0 no effect, 100 complete control)
# Outline: as §4
# [25] = Postemergence, 500 g ai/ha, 0 to 100 scale, 0 no effect, 100 complete control
# [26] = Postemergence, 2000 g ai/ha, 0 to 100 scale, 0 no effect, 100 complete control
# [27] = Preemergence, 2000 g ai/ha, visual rating, 0 to 100 scale (0 no effect, 100 complete control)
# [28] = preemergence, 500 g ai/ha, visual injury, 0 to 100 scale (0 no effect, 100 complete control)
# [29] = 125 g ai/ha, 0 = no effect, 100 = complete control, preemergence
# [30] = 500 g ai/ha, visual rating, 0 = no effect, 100 = complete control, preemergence
# [31] = 125 g ai/ha, visual rating, scale 0 (no effect) to 100 (complete control)
# [32] = 500 g ai/ha, scale 0 to 100, 0 is no effect, 100 is complete control
compound,measurement,setting,value
CCn1nc(C(C)(C)C)cc1C(=O)Nc1ccnc(C(=O)NCCF)c1 [Compound 284],Barnyardgrass plant response rating,[1]; [25],30
same,"Plant response rating, Barnyardgrass",[1]; [26],60
same,Barnyardgrass plant response rating,[1]; [27],85
same,Barnyardgrass plant response rating,[1]; [28],10
same,"Crabgrass, Large plant response rating",[2]; [25],20
same,"Plant response rating, Crabgrass, Large",[2]; [26],20
same,"Crabgrass, Large plant response rating",[2]; [27],80
same,"Crabgrass, Large plant response rating",[2]; [28],15
same,"Foxtail, Giant plant response rating",[3]; [25],20
same,"Plant response rating, Foxtail, Giant",[3]; [26],35
same,"Foxtail, Giant plant response rating",[3]; [27],55
same,"Foxtail, Giant plant response rating",[3]; [28],20
same,Morningglory plant response rating,[4]; [25],10
same,"Plant response rating, Morningglory",[4]; [26],15
same,Morningglory plant response rating,[4]; [27],5
same,Morningglory plant response rating,[4]; [28],0
same,Pigweed plant response rating,[5]; [25],95
same,"Plant response rating, Pigweed",[5]; [26],100
same,Pigweed plant response rating,[5]; [27],100
same,Pigweed plant response rating,[5]; [28],85
same,Velvetleaf plant response rating,[6]; [25],30
same,"Plant response rating, Velvetleaf",[6]; [26],35
same,Velvetleaf plant response rating,[6]; [27],40
same,Velvetleaf plant response rating,[6]; [28],10
same,Barnyardgrass plant response rating (0 to 100 scale),[7]; [29],0
same,"Plant response rating, Barnyardgrass",[7]; [30],80
same,Barnyardgrass plant response rating,[7]; [31],0
same,Barnyardgrass plant response rating,[7]; [32],0
same,Surinam Grass plant response rating (0 to 100 scale),[8]; [29],0
same,"Plant response rating, Surinam Grass",[8]; [30],10
same,Surinam Grass plant response rating,[8]; [31],0
same,Surinam Grass plant response rating,[8]; [32],20
same,Cocklebur plant response rating (0 to 100 scale),[9]; [29],0
same,"Plant response rating, Cocklebur",[9]; [30],0
same,Cocklebur plant response rating,[9]; [31],0
same,Cocklebur plant response rating,[9]; [32],0
same,Corn plant response rating (0 to 100 scale),[10]; [29],0
same,"Plant response rating, Corn",[10]; [30],0
same,Corn plant response rating,[10]; [31],0
same,Corn plant response rating,[10]; [32],10
same,"Crabgrass, Large plant response rating (0 to 100 scale)",[11]; [29],0
same,"Plant response rating, Crabgrass, Large",[11]; [30],90
same,"Crabgrass, Large plant response rating",[11]; [31],0
same,"Crabgrass, Large plant response rating",[11]; [32],10
same,"Foxtail, Giant plant response rating (0 to 100 scale)",[12]; [29],0
same,"Plant response rating, Foxtail, Giant",[12]; [30],10
same,"Foxtail, Giant plant response rating",[12]; [31],0
same,"Foxtail, Giant plant response rating",[12]; [32],0
same,Lambsquarters plant response rating (0 to 100 scale),[13]; [29],90
same,"Plant response rating, Lambsquarters",[13]; [30],100
same,Lambsquarters plant response rating,[13]; [31],50
same,Lambsquarters plant response rating,[13]; [32],50
same,Morningglory plant response rating (0 to 100 scale),[14]; [29],0
same,"Plant response rating, Morningglory",[14]; [30],0
same,Morningglory plant response rating,[14]; [31],0
same,Morningglory plant response rating,[14]; [32],0
same,Pigweed plant response rating (0 to 100 scale),[15]; [29],90
same,"Plant response rating, Pigweed",[15]; [30],100
same,Pigweed plant response rating,[15]; [31],60
same,Pigweed plant response rating,[15]; [32],70
same,Rice plant response rating (0 to 100 scale),[16]; 125 g ai/ha,0
same,"Plant response rating, Rice","[16]; 500 g ai/ha, visual rating",20
same,Velvetleaf plant response rating (0 to 100 scale),[17]; [29],0
same,"Plant response rating, Velvetleaf",[17]; [30],60
same,Velvetleaf plant response rating,[17]; [31],0
same,Velvetleaf plant response rating,[17]; [32],0
same,Blackgrass plant response rating,[18]; [31],20
same,Blackgrass plant response rating,[18]; [32],40
same,Wheat plant response rating,[19]; [31],20
same,Wheat plant response rating,[19]; [32],30
same,"Oat, Wild plant response rating",[20]; [31],10
same,"Oat, Wild plant response rating",[20]; [32],30
same,Rice plant response rating,[21],10
same,"Sedge, Umbrella plant response rating",[22],0
same,Ducksalad plant response rating,[23],70
same,Barnyardgrass plant response rating,[24],30
